# Assay results as given in patent US11986450B2, “Methods and compositions for treating infection and inflammation with selenocyanate” (National Jewish Health, priority 2017, dated 2024).
# Experiments:
# [1] = system: M. massiliense clinical isolate; experiment: Exogenous catalase inhibition of LPO/SeCN killing of NTM; type: cell-based; details: high levels of catalase; 1 mM SeCN, 1600 mU/mL LPO
# Protocol: FIG. 29A M. massiliense clinical isolate was incubated with 1 mM SeCN and either 1600 mU/mL LPO alone or with catalase.
# It is well known that NTM species express catalase genes and have the ability to produce H2O2 (Wayne L G, Diaz G A. Detection of a novel catalase in extracts of Mycobacterium avium and Mycobacterium intracellulare. Infection and immunity. 1988; 56(4):936-41.). As H2O2 is a required substrate of LPO and no exogenous source of H2O2 is needed for LPO/—SeCN-mediated killing, it is expected that NTM provides the H2O2 for utilization by LPO to generate HOSeCN. The inventors have performed a set of experiments that provide evidence that endogenously produced H2O2 plays a role in the LPO/—SeCN-mediated killing of NTM. In FIG. 29, exogenous catalase is utilized in an attempt to inhibit the LPO-mediated generation of HOSeCN. At high levels of catalase, 100% of the killing was inhibited. The high levels of catalase required for inhibition may be due to several reasons, including instability of the enzyme on LB agar and the possibility that LPO may be bound to and concentrated on the bacterial surface, as has been previously described for Streptococci (Pruitt K M, et al. Lactoperoxidase binding to streptococci. Infection and immunity. 1979; 25(1):304-9). […]
# DmTrxR (containing Cys) = DmTrxR (containing Cys) (Drosophila melanogaster, UniProt P91938); experiment: Inactivation of TrxR by oxidants; type: biochemical
# Chain of DmTrxR (containing Cys) (P91938 112-596 limits assumed): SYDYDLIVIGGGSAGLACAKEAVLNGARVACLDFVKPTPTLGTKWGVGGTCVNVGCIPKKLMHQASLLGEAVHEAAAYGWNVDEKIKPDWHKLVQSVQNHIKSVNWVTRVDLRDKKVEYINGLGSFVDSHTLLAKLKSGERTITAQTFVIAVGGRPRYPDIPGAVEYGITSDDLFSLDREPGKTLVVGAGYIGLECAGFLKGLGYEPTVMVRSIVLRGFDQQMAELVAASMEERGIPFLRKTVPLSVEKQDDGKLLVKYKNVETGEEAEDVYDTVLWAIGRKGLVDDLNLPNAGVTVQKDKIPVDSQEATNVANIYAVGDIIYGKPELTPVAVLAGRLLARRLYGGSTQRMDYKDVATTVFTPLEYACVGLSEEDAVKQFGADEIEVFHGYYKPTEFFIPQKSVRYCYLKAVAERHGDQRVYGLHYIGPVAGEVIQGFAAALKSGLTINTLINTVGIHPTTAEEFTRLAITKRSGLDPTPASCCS
# Protocol: (§1) Based on data, it is expected that Sec-TrxR1 is able to metabolize both HOSCN and HOSeCN but not HOCl, and that Cys-TrxR's is unable to metabolize these oxidants. The active site Cys or Sec residue of each respective enzyme is oxidized to either Cys-SO2^− or Sec-SeO2^−. The Cys-TrxR cannot recover from this oxidation while the Sec-TrxR can. To test this, an inactivation assay is performed followed by structural analysis of the protein by MS. In the inactivation assay, (i) enzymes are reduced with NADPH, (ii) the enzymes are treated with oxidant followed by desalting to remove oxidant, and (iii) the enzyme is assayed for activity. […] The proteins are proteolyzed followed by LC-MS analyses. The LC-MS profiles are compared to control samples not treated with oxidant. This determines the exact mechanism of inactivation for each enzyme. […] This would explain why HOCl is highly inflammatory (nonspecific oxidation), and why HOSCN is used as a bactericide because it can rapidly inactivate proteins/enzyme by oxidation of sulfur amino acids (Cys, Met), but can be metabolized by the host cell by Sec-TrxR.
# [2] = target: Sec-containing TrxR2 (Sec-TrxR2) (Mus musculus, UniProt Q9JLT4); experiment: Inactivation of TrxR by oxidants; type: biochemical
# Chain of Sec-containing TrxR2 (Sec-TrxR2) (Q9JLT4 35-524): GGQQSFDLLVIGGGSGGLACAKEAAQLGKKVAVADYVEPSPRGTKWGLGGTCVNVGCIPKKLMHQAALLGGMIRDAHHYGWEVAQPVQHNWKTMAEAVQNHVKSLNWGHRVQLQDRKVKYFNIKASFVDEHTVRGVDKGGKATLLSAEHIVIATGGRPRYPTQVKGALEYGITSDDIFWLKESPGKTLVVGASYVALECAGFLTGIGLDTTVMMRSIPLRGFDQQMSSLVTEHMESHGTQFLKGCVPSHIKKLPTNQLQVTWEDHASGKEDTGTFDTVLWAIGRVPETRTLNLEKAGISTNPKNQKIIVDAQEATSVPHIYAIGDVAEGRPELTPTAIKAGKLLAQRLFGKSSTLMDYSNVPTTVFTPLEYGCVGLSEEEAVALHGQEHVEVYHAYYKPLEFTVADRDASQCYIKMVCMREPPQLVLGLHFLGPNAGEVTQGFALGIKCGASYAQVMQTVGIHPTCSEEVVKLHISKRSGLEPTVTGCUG
# Protocol: as §1
# [3] = system: Pseudomonas aeruginosa, Burkholderia cepacia complex, methicillin resistant Staphylococcus aureus; experiment: Killing of CF colonizing bacteria by SCN or SeCN with host defense system (LPO+GOX); type: cell-based; details: 400 uM with LPO+GOX, 2 hours at room temperature, CFU
# Protocol: Comparisons of HOSeCN on SCN sensitive and resistant strains of (FIGS. 30A & 30B) BCC clinical isolates, (FIGS. 30C & 30D) PA clinical isolates, and (FIG. 30E & FIG. 30F) MRSA clinical isolates. Bacteria were incubated for 2 hour with LPO, ^−SCN or SeCN, glucose and increasing amounts of GOX. The flux (HOX) of either HOSCN or HOSeCN was determined from standard curves of GOX/LPO and either HOSCN or HOSeCN. LC50 values were determined by curve fitting the data with nonlinear regression of log (agonist) vs normalized response.
# M. Abscessus = experiment: Killing of NTM clinical isolate with LPO/GOX and SCN or SeCN; type: cell-based; details: 1800 mU/mL LPO and 300 mU/mL GOX
# From the text: A HOSCN-sensitive nontuberculous Mycobacteria (NTM) clinical isolate ws exposed to LPO/GOX with either SCn or SeCN.
# (§2) Susceptibility of NTM species to both HOSCN- and HOSeCN-mediated killing. […] Given the shorter amount of time necessary for —SeCN-mediated killing of NTM compared to other bacteria species (FIGS. 24A and 24B), the possibility that the mechanism responsible for —SeCN-mediated killing of NTM was unique compared to —SCN-mediated killing of NTM and —SeCN-mediated killing of other species is determined. […] Since killing required LPO, the inventors believe that endogenous H2O2 production by NTM provided the H2O2 required for the generation of HOSeCN via LPO and —SeCN.
# [4] = system: clinical isolate of M. abscessus; experiment: NTM killing, exposure to GOX, LPO, SeCN components; type: cell-based; details: plated on LB agar immediately after mixing
# From the text: (§3) FIGS. 24A and 24B show —SeCN-mediated killing of NTM requires LPO, but not GOX, while LPO/—SeCn has no effect upon B. Cepacia. […] All conditions with GOX also contained dextrose, the required substrate of GOX for H2O2 production.
# as §2
# [5] = system: Burkholderia cepacian clinical isolate; experiment: B. cepacia exposure to LPO and KSeCN; type: cell-based; details: 1000 mU/mL LPO, no GOX; 0 hr and 1 hour at 37 C
# From the text: as §3, §2
# [6] = system: NTM strains (MABSC subspecies abscessus and massiliense); experiment: LPO and SeCN dose responses in the killing of NTM; type: cell-based; details: four NTM strains, dose curves of LPO and SeCN, plated on LB agar immediately after mixing
# Protocol: FIGS. 25A and 25B show [LPO] and [—SeCN] dose responses in the killing of NTM. […] All samples were plated on LB immediately after mixing. CF0271-0636 and the ATCC strains were MABSC subspecies abscessus and CF0008-6241 was subspecies massiliense.
# (§4) To examine the variability in susceptibility to HOSeCN-mediated killing amongst clinical NTM isolates obtained from CF airways, four NTM strains were exposed to dose curves of LPO and —SeCN (FIGS. 25A and 25B). While some variations were detected in the sensitivity to killing amongst the isolates, bacterial viability was reduced to less than 10% with all isolates when plated on LB agar immediately after reactions were mixed. Importantly, levels of —SeCN able to reduce bacterial viability were not toxic to human epithelial cells, even in the presence of GOX (FIG. 26).
# [7] = system: Human bronchial epithelial cells (HBE); experiment: HBE cell viability (MTT) after SeCN / peroxidase system; type: cell-based; details: 1 hour treatment, viability 24 hours later, even in the presence of GOX
# Protocol: (§5) Human bronchial epithelial cells (HBE) or Burkholderia cepacia complex (BCC) were treated for 1 hour in PBS (control), SeCN only (grey bars), glucose oxidase only (hatch bar), or full peroxidase system (black bar) at pH 7.4 and then media replaces and viability assessed 24 hours later. HBE cell viability assessed by MTT and bacterial cell viability assessed by colony forming units.
# as §4
# [8] = system: clinical isolate of M. abscessus; experiment: SeCN-mediated killing of NTM in different buffer/media; type: cell-based
# Protocol: FIGS. 27A-27C show —SeCN-mediaed killing of NTM requires active growth. A clinical isolate of M. abscessus was incubated in the listed buffer/media containing LPO at 1000 mU/ml and either KCL or SeCN. At the indicated time, samples were plated on LB agar as undiluted or 10× diluted in PBS. […] FIG. 27A in PBS; FIG. 27B in Middlebrook 7H9; FIG. 27C in Lysogeny Broth.
# Given the reduced viability observed with immediate plating of LPO/—SeCN reactions on LB agar while —SCN-mediated killing required prolonged incubation, the possibility that HOSeCN generated on the LB agar was responsible for the loss in viability was determined. […] The inventors believe that the LPO in undiluted samples remained active on the LB agar, and that the HOSeCN-mediated killing of NTM, which was not metabolically active in the PBS buffer, requires active growth of the NTM, which occurs on the LB agar. To test this, the PBS buffer was substituted with either Middlebrook 7H9 media (without catalase) or LB broth (FIGS. 27A, 27B and 27C).
# NTM = experiment: Preincubation of NTM with LPO, washing, then SeCN; type: cell-based; details: data not shown
# Protocol: The opposite is expected to be true for highly resistant NTMs. Adding exogenous catalase or an H2O2 scavenger is expected to inhibit —SeCN-mediated killing, while inhibiting endogenous catalase activity will increase —SeCN-mediated killing. In addition, LPO activity is expected to be localized to the surface of the bacterium. […] It is expected that very little Burkholderia will be killed when incubated in the presence of NTM/LPO/—SeCN, as the highly reactive HOSeCN species will be consumed by the NTM.
# [9] = Inhaled SeCN in mice, ELF and serum levels by HPLC-EC; type: in vivo, Mice (C57B6); details: aerosolized isotonic 0.05% (w/v) solution in PBS for 30 minutes
# Protocol: Mice are exposed to aerosolized isotonic (0.9%) or isotonic ^−SeCN (0.05%) in a Plexiglas nebulizing chamber (see FIG. 32 for data). Isotonicity is maintained by substituting ^−SeCN for NaCl. All stock solutions are freshly prepared and 10 mL are nebulized over the 30 minute exposure using a pulmosonic nebulizer (DeVilbiss). Outcomes include: 1) changes in serum, ELF, lung and BAL cell GSH, ^−SCN and SeCN levels; 2) changes is lung tissue Sec-TrxR levels and activity; 3) changes in oxidative stress with assessments of DNA (8-hydroxy-2-deoxyguanosine, 8OH2dG) and lipid (4-hydroxynonenal, 4HNE) oxidation; 4) changes in lung and blood bacterial CFUs; 5) changes in bronchoalveolar lavage fluid (BALF) protein, IgM and lactate dehydrogenase (LDH) as markers of edema and injury; 6) BAL cell counts and differentials as markers of inflammation; 7) changes in BALF cytokine profile (Mouse pro-inflammatory-7 Ultra sensitive kit, IFNγ, IL-1β, IL-10, IL-12p70, IL-6, KC, TNFα, Meso Scale Discovery) as markers of inflammation; and 8) standard histopathology assessments.
# 16HBE cells = experiment: Sec-TrxR inhibition and HOSCN toxicity in lung cells (LDH release); type: cell-based, human; details: auranofin 1 hour, then 300 μM HOSCN, viability 24 hours later
# Protocol: FIG. 19. […] 16HBE cells were treated with auranofin at increasing concentrations for 1 hour and then exposed to 300 μM of either HOSCN or HOCl and viability was assessed by lactate dehydrogenase release 24 hours later. Vehicle (Veh).
# Additional studies determine both leukocyte viability and bacterial viability after ^−SCN treatments and under simulated ^−SCN conditions with and without pharmacological inhibition of Sec-TrxR using auranofin and aurothioglucose (Rigobello, M. P., et al. (2008) Gold(I) complexes determine apoptosis with limited oxidative stress in Jurkat T cells. Eur J Pharmacol 582, 26-34). […] These assays have been described to study bacterial killing by neutrophils (Hampton, M. B., and Winterbourn, C. C. (1999) Methods for quantifying phagocytosis and bacterial killing by human neutrophils. J Immunol Methods 232, 15-22). Neutrophil death is assessed by flow cytometry using % of Annexin V (apoptosis marker) and propidium iodide (PI, necrosis marker) positive cells in each gate as shown in FIG. 7.
# [10] = target: recombinant E. coli Cys-TrxR (Escherichia coli, UniProt P0A9P4); experiment: Kinetic analysis of HOSeCN metabolism; type: biochemical; details: similar conditions
# Chain of recombinant E. coli Cys-TrxR (P0A9P4 whole entry): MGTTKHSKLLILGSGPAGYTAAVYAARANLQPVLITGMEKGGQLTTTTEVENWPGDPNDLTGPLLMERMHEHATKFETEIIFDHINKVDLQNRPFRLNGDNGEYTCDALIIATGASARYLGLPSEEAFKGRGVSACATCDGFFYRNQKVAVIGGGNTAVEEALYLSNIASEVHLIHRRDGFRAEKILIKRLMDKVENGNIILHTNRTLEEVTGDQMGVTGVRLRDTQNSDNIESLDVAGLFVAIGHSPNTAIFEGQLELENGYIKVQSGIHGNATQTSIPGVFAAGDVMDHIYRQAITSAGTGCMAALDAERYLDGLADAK
# From the text: FIG. 12. Kinetic analysis of HOSeCN metabolism by recombinant mouse Sec-TrxR2 and recombinant E. coli Cys-TrxR.
# [11] = system: Burkholderia cepacia complex (BCC); experiment: BCC viability (CFU) after SeCN / peroxidase system; type: cell-based; details: full peroxidase system, 1 hour, pH 7.4
# Protocol: as §5
# [12] = LPO 1000 mU/ml, 0 to 4 hours, diluted 10× before plating
compound,measurement,setting,value
catalase,Inhibition of LPO/SeCN-mediated killing,[1],100%
"OCl [HOCl, hypochlorite]",Inactivation of DmTrxR by oxidant,DmTrxR (containing Cys),is inactivated
same,Inactivation of Sec-TrxR2 by oxidant,[2],resists inactivation
"N#C[SeH] [SeCN, selenocyanate]","Killing of thiocyanate susceptible and resistant bacteria, compared with SCN",[3],as effective or superior
same,"Killing of M. Abscessus, compared with SCN",M. Abscessus,more efficient than SCN
same,"Killing of NTM with LPO, without GOX",[4],only required LPO and —SeCN
same,Effect of LPO and SeCN alone upon B. cepacia,[5],no effect
same,Bacterial viability,[6],less than 10%
same,Toxicity to human epithelial cells (HBE viability),[7],not toxic
same,Bacterial growth in Middlebrook 7H9 media,[8]; [12],prevented bacterial growth
same,Viability in LB broth,[8]; [12],loss of viability
same,Killing in PBS buffer,"[8]; with LPO, samples diluted 10-fold before plating on LB agar",no killing detected
same,Killing of NTM after LPO preincubation and washing,NTM,substantial killing
same,ELF SeCN levels,[9],high ELF SeCN levels
same,Tolerability of inhaled SeCN,[9],well tolerated
CC(=O)OC[C@H]1O[C@@H]([S-])[C@H](OC(C)=O)[C@@H](OC(C)=O)[C@@H]1OC(C)=O.CCP(CC)CC.[Au+] [auranofin],Sensitization of lung cells to HOSCN-mediated toxicity,16HBE cells,sensitizes lung cells to HOSCN-mediated toxicity
"N#C[Se]O [HOSeCN, hyposelenocyanite]",HOSeCN metabolism activity,[10],no measurable activity
same,Bacterial cell viability (CFU),[11],killing bacteria
same,Inactivation of DmTrxR by oxidant,DmTrxR (containing Cys),is inactivated
same,Inactivation of Sec-TrxR2 by oxidant,[2],resists inactivation
